Results from ChEMBL document CHEMBL1201862, “PubChem BioAssay data set” (2004).
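Each compound was tested at five concentrations against cells in 96-well plates for 48 hours. Here, GI50 denotes the concentration required for 50% inhibition of growth.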 The source made the active and inactive calls. Rule as the data show it: active = GI50 up to about 1.1 µM and inactive = higher.

Columns and labels:
Test in all cases: NCI anticancer screen, dose series, 48 h
[1] = system: DMS-114
[2] = system: DLD-1
[3] = system: KM-20L2
[4] = system: LXFL 529
[5] = system: RXF 631
[6] = system: HOP-18
[7] = system: DMS-273
[8] = system: XF498
[9] = system: SNB-78

SMILES	GI50 [1]	GI50 [2]	GI50 [3]	GI50 [4]	GI50 [5]	GI50 [6]	GI50 [7]	GI50 [8]	GI50 [9]
COc1ccccc1NC(=O)C1=C(C)NC(C)=C(C(=O)Nc2ccccc2OC)C1c1cccc2c1OCO2	77.3 µM (inactive)	> 100 µM (inactive)	> 100 µM (inactive)	69.2 µM (inactive)	> 100 µM (inactive)	> 100 µM (inactive)	> 100 µM (inactive)		
COc1ccc2c3c([nH]c(=O)c2c1C(=O)O)-c1ccccc1CC3	> 100 µM (inactive)	> 100 µM (inactive)	> 100 µM (inactive)	> 100 µM (inactive)	> 100 µM (inactive)		> 100 µM (inactive)	> 100 µM (inactive)	79.1 µM (inactive)
CCC1(CN(C)C)CC/C(=C\c2ccc(OC)cc2)C1=O (stereo unspecified)	54.1 µM (inactive)	58.3 µM (inactive)	> 100 µM (inactive)	94 µM (inactive)	62.7 µM (inactive)	> 100 µM (inactive)	> 100 µM (inactive)		> 100 µM (inactive)
COc1ccc(CCc2cc(OC)c(OC)c(OC)c2)cc1	0.0248 µM (active)	< 0.01 µM (active)	0.0128 µM (active)	0.0552 µM (active)	< 0.0166 µM (active)	> 100 µM (inactive)	< 0.01 µM (active)	< 0.01 µM (active)	0.0169 µM (active)
CC1=Nc2c(O)nc(S)nc2NC(c2ccc(Cl)c(Cl)c2)C1 (stereo unspecified)	35.6 µM (inactive)	31.6 µM (inactive)	25.6 µM (inactive)	19.4 µM (inactive)		> 89.1 µM (inactive)	26.1 µM (inactive)	> 65.8 µM (inactive)	60.4 µM (inactive)
CN(C)C=C1C(Cl)=C(C=O)CC(C=O)=C1Cl	11.2 µM (inactive)	5.71 µM (inactive)	19.5 µM (inactive)	2.03 µM (inactive)		13.3 µM (inactive)	11 µM (inactive)		
COC(=O)/C(=N/O)C(C(=O)C=C(C)C)C(=O)C(=O)Nc1nc2ccc([N+](=O)[O-])cc2s1 (stereo unspecified)			80.2 µM (inactive)	25.6 µM (inactive)			45.4 µM (inactive)	58.7 µM (inactive)	27.7 µM (inactive)
C[n+]1cn(CC(=O)c2ccccc2)c(C(N)=O)c1N	25 µM (inactive)	> 100 µM (inactive)	> 100 µM (inactive)	61.7 µM (inactive)	> 100 µM (inactive)	> 100 µM (inactive)	> 100 µM (inactive)		> 100 µM (inactive)
CCN(CC)c1ccc(/N=N/c2ccc(-c3nc4cccnc4o3)cc2)cc1	> 100 µM (inactive)	60.3 µM (inactive)	> 100 µM (inactive)	> 100 µM (inactive)			> 100 µM (inactive)	> 100 µM (inactive)	> 100 µM (inactive)
O/N=C1\C(=C\c2ccc3c(c2)OCCO3)CCCC1C(NO)c1ccc2c(c1)OCCO2 (stereo unspecified)	20.1 µM (inactive)	31.6 µM (inactive)	19 µM (inactive)	20.2 µM (inactive)	32.9 µM (inactive)	43.4 µM (inactive)	19.2 µM (inactive)		33.9 µM (inactive)
C[C@@H](C1CCC2C3C(=CC(=O)[C@@]21C)[C@H](C)[C@]1(CCC(=O)O1)C1OC31)[C@H]1C[C@]2(C)O[C@@](C)(O1)OC2(C)C (stereo partly specified)	> 100 µM (inactive)	> 100 µM (inactive)	> 100 µM (inactive)	> 100 µM (inactive)	> 100 µM (inactive)	> 100 µM (inactive)	> 100 µM (inactive)	> 100 µM (inactive)	
CN(C)C(=S)/N=c1\ss/c(=N\C(=S)N(C)C)n1-c1cccc(Cl)c1	> 100 µM (inactive)		> 100 µM (inactive)				> 100 µM (inactive)		> 100 µM (inactive)
CC(CC(=O)Nc1ccc(NC(=O)CC(C)/N=N\C(N)=S)cc1)/N=N\C(N)=S (stereo unspecified)	53.7 µM (inactive)	> 100 µM (inactive)	> 100 µM (inactive)	> 100 µM (inactive)	> 100 µM (inactive)	> 100 µM (inactive)	36.9 µM (inactive)	> 100 µM (inactive)	> 100 µM (inactive)
O=C1Nc2cccc3ncn(c23)C2=C1CCCC2	> 100 µM (inactive)	> 100 µM (inactive)	> 100 µM (inactive)	> 100 µM (inactive)		4.98 µM (inactive)	> 100 µM (inactive)		> 100 µM (inactive)
OCC1CC2CC1C1(C2)OCCO1 (stereo unspecified)	> 100 µM (inactive)	> 100 µM (inactive)	> 100 µM (inactive)	> 100 µM (inactive)	> 100 µM (inactive)	> 100 µM (inactive)	> 100 µM (inactive)	> 100 µM (inactive)	> 100 µM (inactive)
